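How tested: cells in 96-well plates exposed to compound for 48 hours at five concentrations. The concentration for 50% growth inhibition is given as GI50. TGI marks complete inhibition of growth.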
What was measured:
Test in all cases: DTP human tumour cell line panel, 48 h
[1] = tested on: U251 CNS
[2] = tested on: UO-31 renal
[3] = tested on: SK-MEL-5 melanoma
[4] = tested on: RPMI-8226 leukemia
[5] = tested on: A498 renal
[6] = tested on: DU-145 prostate
[7] = tested on: HOP-92 NSCLC
[8] = tested on: T-47D breast
[9] = tested on: IGROV1 ovarian
[10] = tested on: TK-10 renal
[11] = tested on: RXF 393 renal
[12] = tested on: SK-MEL-28 melanoma
[13] = tested on: SNB-75 CNS
[14] = tested on: SW-620 colon
[15] = tested on: OVCAR-3 ovarian
[16] = tested on: HT29 colon
[17] = tested on: SR leukemia
[18] = tested on: HL-60(TB) leukemia
[19] = tested on: A549 NSCLC
[20] = tested on: MDA-MB-231 breast
[21] = tested on: SF-539 CNS
[22] = tested on: HCT-15 colon
[23] = tested on: PC-3 prostate
[24] = tested on: SK-OV-3 ovarian
[25] = tested on: MALME-3M melanoma
[26] = tested on: OVCAR-5 ovarian
[27] = tested on: HCC-2998 colon
[28] = tested on: KM12 colon
[29] = tested on: SF-268 CNS
[30] = tested on: CCRF-CEM leukemia
[31] = tested on: SF-295 CNS
[32] = tested on: NCI-H460 lung
[33] = tested on: LOX IMVI melanoma
[34] = tested on: HCT-116 colon
[35] = tested on: NCI-H226 lung
[36] = tested on: UACC-257 melanoma
[37] = tested on: MOLT-4 leukemia
[38] = tested on: 786-0 renal
[39] = tested on: K-562 leukemia
[40] = tested on: OVCAR-8 ovarian
[41] = tested on: NCI/ADR-RES ovarian
[42] = tested on: ACHN renal
[43] = tested on: SN12C renal
[44] = tested on: CAKI-1 renal
[45] = tested on: OVCAR-4 ovarian
[46] = tested on: BT-549 breast
[47] = tested on: MDA-MB-435
[48] = tested on: NCI-H23 lung
[49] = tested on: HS 578T breast
[50] = tested on: SNB-19 CNS
[51] = tested on: MCF7 breast
[52] = tested on: SK-MEL-2 melanoma
[53] = tested on: EKVX NSCLC
[54] = tested on: HOP-62 NSCLC
[55] = tested on: UACC-62 melanoma
[56] = tested on: NCI-H522 lung
[57] = tested on: COLO 205 colon
[58] = tested on: M14 melanoma

With O=C(NCCN1CCOCC1)OCc1nc2nc(Cl)nc(N3CCOCC3)c2[nH]1 the GI50 [1] was 4.09 µM, the TGI [1] was over 100 µM and the GI50 [2] was 4.25 µM. It also gave a TGI [2] of over 100 µM, a GI50 [3] of 2.1 µM and a TGI [3] of 4.72 µM. The GI50 [4] was 0.701 µM, the TGI [4] was over 100 µM and the GI50 [5] was 1.68 µM. For the same molecule, the TGI [5] was 6.66 µM, the GI50 [6] was 2.37 µM and the TGI [6] was 7.79 µM. The GI50 [7] was 1.41 µM, the TGI [7] was over 100 µM and the GI50 [8] was over 100 µM. For the same molecule, the TGI [8] was over 100 µM, the GI50 [9] was 2.7 µM and the TGI [9] was over 100 µM. The GI50 [10] was over 100 µM, the TGI [10] was over 100 µM and the GI50 [11] was 1.87 µM. The TGI [11] was 6.78 µM, the GI50 [12] was over 100 µM and the TGI [12] was over 100 µM. The GI50 [13] was 4.12 µM, the TGI [13] was over 100 µM and the GI50 [14] was 2.68 µM. It also gave a TGI [14] of over 100 µM, a GI50 [15] of 1.15 µM and a TGI [15] of 7.18 µM. The GI50 [16] was over 100 µM, the TGI [16] was over 100 µM and the GI50 [17] was 0.728 µM. For the same molecule, the TGI [17] was over 100 µM, the GI50 [18] was 1.61 µM and the TGI [18] was 6.83 µM. The GI50 [19] was 9.33 µM, the TGI [19] was over 100 µM and the GI50 [20] was 2.91 µM. The TGI [20] was over 100 µM, the GI50 [21] was 0.402 µM and the TGI [21] was 3.29 µM. For the same molecule, the GI50 [22] was 3.09 µM, the TGI [22] was over 100 µM and the GI50 [23] was 3.38 µM. For the same molecule, the TGI [23] was over 100 µM, the GI50 [24] was 5.28 µM and the TGI [24] was over 100 µM. It also gave a GI50 [25] of 4.41 µM, a TGI [25] of over 100 µM and a GI50 [26] of 4.42 µM. For the same molecule, the TGI [26] was over 100 µM, the GI50 [27] was 3.77 µM and the TGI [27] was over 100 µM. The GI50 [28] was 1.96 µM, the TGI [28] was over 100 µM and the GI50 [29] was 3.02 µM. The TGI [29] was over 100 µM, the GI50 [30] was 2.9 µM and the TGI [30] was over 100 µM. It also gave a GI50 [31] of 5.77 µM, a TGI [31] of over 100 µM and a GI50 [32] of 3.29 µM. The TGI [32] was over 100 µM, the GI50 [33] was 0.382 µM and the TGI [33] was over 100 µM. For the same molecule, the GI50 [34] was 2.41 µM, the TGI [34] was over 100 µM and the GI50 [35] was 3.14 µM. It also gave a TGI [35] of over 100 µM, a GI50 [36] of over 100 µM and a TGI [36] of over 100 µM. For the same molecule, the GI50 [37] was 3.32 µM, the TGI [37] was over 100 µM and the GI50 [38] was 23.7 µM. It also gave a TGI [38] of over 100 µM, a GI50 [39] of 2.43 µM and a TGI [39] of over 100 µM. The GI50 [40] was 2.09 µM, the TGI [40] was over 100 µM and the GI50 [41] was 0.566 µM. It also gave a TGI [41] of over 100 µM, a GI50 [42] of 0.901 µM and a TGI [42] of over 100 µM. The GI50 [43] was 2.16 µM, the TGI [43] was over 100 µM and the GI50 [44] was 3.07 µM. The TGI [44] was over 100 µM, the GI50 [45] was 9.69 µM and the TGI [45] was over 100 µM. It also gave a GI50 [46] of 3.48 µM, a TGI [46] of over 100 µM and a GI50 [47] of 0.651 µM. It also gave a TGI [47] of 2.94 µM, a GI50 [48] of 3.56 µM and a TGI [48] of over 100 µM. For the same molecule, the GI50 [49] was 2.85 µM, the TGI [49] was over 100 µM and the GI50 [50] was 4.18 µM. The TGI [50] was over 100 µM, the GI50 [51] was 2.02 µM and the TGI [51] was over 100 µM. The GI50 [52] was 6.66 µM, the TGI [52] was over 100 µM and the GI50 [53] was over 100 µM. For the same molecule, the TGI [53] was over 100 µM, the GI50 [54] was 4.93 µM and the TGI [54] was over 100 µM. For the same molecule, the GI50 [55] was 2.98 µM, the TGI [55] was over 100 µM and the GI50 [56] was 1.11 µM. The TGI [56] was over 100 µM, the GI50 [57] was over 100 µM and the TGI [57] was over 100 µM.
With CN(C)C(=O)Nc1nc2cc(Cl)c(Cl)cc2[nH]1 the GI50 [1] was 0.636 µM, the TGI [1] was over 51.1 µM and the GI50 [2] was 5.53 µM. The TGI [2] was over 100 µM, the GI50 [3] was 0.441 µM and the TGI [3] was over 100 µM. It also gave a GI50 [4] of 1.37 µM, a TGI [4] of over 100 µM and a GI50 [5] of 0.487 µM. It also gave a GI50 [6] of 2.02 µM, a TGI [6] of 24.9 µM and a GI50 [58] of 0.603 µM. It also gave a GI50 [7] of 16.1 µM, a TGI [7] of over 100 µM and a GI50 [8] of 0.655 µM. For the same molecule, the TGI [8] was over 100 µM, the GI50 [9] was 1.15 µM and the TGI [9] was over 100 µM. It also gave a GI50 [10] of 4.71 µM, a TGI [10] of over 100 µM and a GI50 [11] of 1.63 µM. The TGI [11] was over 28.7 µM, the GI50 [12] was 8.63 µM and the TGI [12] was over 100 µM. It also gave a GI50 [13] of 3.08 µM, a TGI [13] of over 35.2 µM and a GI50 [14] of 0.476 µM. For the same molecule, the TGI [14] was over 100 µM, the GI50 [15] was 0.393 µM and the TGI [15] was 1.94 µM. The GI50 [16] was 0.393 µM, the TGI [16] was over 32.5 µM and the GI50 [17] was 0.222 µM. The GI50 [18] was 0.241 µM, the GI50 [19] was 0.704 µM and the TGI [19] was over 25.4 µM. It also gave a GI50 [20] of 3.42 µM, a TGI [20] of over 100 µM and a GI50 [21] of 0.537 µM. For the same molecule, the TGI [21] was 6.05 µM, the GI50 [22] was 0.546 µM and the TGI [22] was over 100 µM. For the same molecule, the GI50 [23] was 0.566 µM, the TGI [23] was over 51.8 µM and the GI50 [24] was 1.09 µM. The TGI [24] was over 56.6 µM, the GI50 [25] was 3.22 µM and the TGI [25] was 87.3 µM. The GI50 [26] was 19.8 µM, the TGI [26] was over 100 µM and the GI50 [27] was 2.5 µM. It also gave a TGI [27] of over 47.1 µM, a GI50 [28] of 0.404 µM and a TGI [28] of over 35.7 µM. The GI50 [29] was 2.89 µM, the TGI [29] was over 100 µM and the GI50 [30] was 0.953 µM. For the same molecule, the TGI [30] was over 100 µM, the GI50 [31] was 0.603 µM and the TGI [31] was 39.1 µM. It also gave a GI50 [32] of 0.44 µM, a TGI [32] of 30 µM and a GI50 [33] of 1.87 µM. It also gave a TGI [33] of over 100 µM, a GI50 [34] of 0.463 µM and a TGI [34] of over 35 µM. For the same molecule, the GI50 [35] was 2.83 µM, the TGI [35] was over 100 µM and the GI50 [36] was over 100 µM. It also gave a TGI [36] of over 100 µM, a GI50 [37] of 1.01 µM and a TGI [37] of over 70.4 µM. The GI50 [38] was 1.21 µM, the TGI [38] was over 100 µM and the GI50 [39] was 0.41 µM. The TGI [39] was over 33.8 µM, the GI50 [40] was 2.46 µM and the TGI [40] was over 60.4 µM. For the same molecule, the GI50 [41] was 0.507 µM, the TGI [41] was 9.37 µM and the GI50 [42] was 3.11 µM. For the same molecule, the TGI [42] was over 100 µM, the GI50 [43] was 1.36 µM and the TGI [43] was over 100 µM. It also gave a GI50 [44] of 0.525 µM, a TGI [44] of over 23.5 µM and a GI50 [45] of 1.61 µM. It also gave a TGI [45] of over 100 µM, a GI50 [46] of 2.79 µM and a TGI [46] of over 100 µM. For the same molecule, the GI50 [47] was 0.2 µM, the TGI [47] was 3.85 µM and the GI50 [48] was 2.07 µM. For the same molecule, the TGI [48] was over 66.5 µM, the GI50 [49] was 1.26 µM and the TGI [49] was over 55.1 µM. The GI50 [50] was 11.6 µM, the TGI [50] was over 100 µM and the GI50 [51] was 0.367 µM. The TGI [51] was over 100 µM, the GI50 [52] was 4.55 µM and the TGI [52] was over 49.1 µM. For the same molecule, the GI50 [53] was 5.3 µM, the TGI [53] was over 100 µM and the GI50 [54] was 3.84 µM. For the same molecule, the TGI [54] was over 50.7 µM, the GI50 [55] was 0.382 µM and the TGI [55] was over 100 µM. For the same molecule, the GI50 [56] was 0.38 µM, the TGI [56] was 4.14 µM and the GI50 [57] was 0.661 µM. For the same molecule, the TGI [57] was 5.08 µM.

Reference: PubChem BioAssay (NCI)
